# Data taken from ChEMBL document CHEMBL5532656, “Novel ligustilide derivatives target quorum sensing system LasR/LasB and relieve inflammatory response against Pseudomonas aeruginosa infection” (Eur J Med Chem, 2024).
# Experiment: Inhibition of quorum sensing system in Pseudomonas aeruginosa PAO1-lasB-gfp at 10 uM relative to control
row,SMILES,inhibition
1,CCCCC1(O)C2=C(C=CCC2)C(=O)N1Cc1ccccc1Cl (configuration not stated),37.6%
2,CCCCC1(O)C2=C(C=CCC2)C(=O)N1Cc1ccc(OCC)cc1 (configuration not stated),40.5%
3,CCCCC1(O)C2=C(C=CCC2)C(=O)N1Cc1ccccc1C(F)(F)F (configuration not stated),45.1%
4,CCCCC1(O)C2=C(C=CCC2)C(=O)N1Cc1ccc(C#N)cc1 (configuration not stated),44.3%
5,CCCCC1(O)C2=C(C=CCC2)C(=O)N1Cc1ccccc1F (configuration not stated),40.4%
6,CCCCC1(O)C2=C(C=CCC2)C(=O)N1CC (configuration not stated),17.4%
7,CCCCC1(O)C2=C(C=CCC2)C(=O)N1Cc1ccc(Cl)cc1 (configuration not stated),47.4%
8,CCCCC1(O)C2=C(C=CCC2)C(=O)N1Cc1ccccc1OC (configuration not stated),36.3%
9,CCCCC1(O)C2=C(C=CCC2)C(=O)N1Cc1ccc(-c2ccccc2)cc1 (configuration not stated),43.8%
10,CCCCC1(O)C2=C(C=CCC2)C(=O)N1CCc1c[nH]c2ccc(O)cc12 (configuration not stated),37.7%
11,CCCCC1(O)C2=C(C=CCC2)C(=O)N1CCc1ccccc1 (configuration not stated),11.6%
12,CCCCC1(O)C2=C(C=CCC2)C(=O)N1Cc1cccc(OC)c1 (configuration not stated),29.4%
13,CCCCC1(O)C2=C(C=CCC2)C(=O)N1Cc1cccs1 (configuration not stated),29.7%
14,CCCCC1(O)C2=C(C=CCC2)C(=O)N1Cc1ccc(Br)cc1 (configuration not stated),45.2%
15,CCCCC1(O)C2=C(C=CCC2)C(=O)N1CCC (configuration not stated),21.1%
16,CCCCC1(O)C2=C(C=CCC2)C(=O)N1Cc1cccc(C(F)(F)F)c1 (configuration not stated),39.4%
17,CCCCN1C(=O)C2=C(CCC=C2)C1(O)CCCC (configuration not stated),21.6%
18,CCCCC1(O)C2=C(C=CCC2)C(=O)N1CCCCc1ccccc1 (configuration not stated),18.1%
19,CCCCC1(O)C2=C(C=CCC2)C(=O)N1c1ccccc1 (configuration not stated),15.1%

row,SMILES,inhibition
1,CCCCC1(O)C2=C(C=CCC2)C(=O)N1Cc1ccc(N(C)C)cc1 (configuration not stated),35.3%
2,CCCCC1(O)C2=C(C=CCC2)C(=O)N1Cc1cccnc1 (configuration not stated),31.9%
3,CCCCC1(O)C2=C(C=CCC2)C(=O)N1Cc1ccc(OC)cc1 (configuration not stated),40.7%
4,CCCCC1(O)C2=C(C=CCC2)C(=O)N1C1CC1 (configuration not stated),20.4%
5,C#CCN1C(=O)C2=C(CCC=C2)C1(O)CCCC (configuration not stated),21.5%
6,CCCCCN1C(=O)C2=C(CCC=C2)C1(O)CCCC (configuration not stated),21.2%
7,CCCCC1(O)C2=C(C=CCC2)C(=O)N1Cc1ccco1 (configuration not stated),33.9%
8,CCCCC1(O)C2=C(C=CCC2)C(=O)N1C1CCCC1 (configuration not stated),16.7%
9,CCCCC1(O)C2=C(C=CCC2)C(=O)N1Cc1ccc(C(C)C)cc1 (configuration not stated),40.7%
10,CCCCC1(O)C2=C(C=CCC2)C(=O)N1c1ncccn1 (configuration not stated),35.5%
11,CCCCC1(O)C2=C(C=CCC2)C(=O)N1Cc1ccc(F)cc1 (configuration not stated),41.5%
12,CCCCC1(O)C2=C(C=CCC2)C(=O)N1Cc1cccc(-c2ccccc2)c1 (configuration not stated),32.9%
13,CCCCC1(O)C2=C(C=CCC2)C(=O)N1Cc1cccc(Cl)c1 (configuration not stated),34.2%
14,CCCCC1(O)C2=C(C=CCC2)C(=O)N1CCc1c[nH]c2ccc(OC)cc12 (configuration not stated),30.6%
15,CCCCC1(O)C2=C(C=CCC2)C(=O)N1Cc1ccc(O)cc1 (configuration not stated),40.2%
16,CCCCC1(O)C2=C(C=CCC2)C(=O)N1Cc1ccc(C)cc1 (configuration not stated),41.5%
17,CCCCC1(O)C2=C(C=CCC2)C(=O)N1Cc1cccc(F)c1 (configuration not stated),41%
18,CCCCC1(O)C2=C(C=CCC2)C(=O)N1C1CCCCC1 (configuration not stated),16.4%
